Where a SMILES comes first, the peptide text is derived from it. Bridges are numbered along the chain shown (N, C = ends). Where no end group is shown, it is not given here.
Tests used:
[1] = test system: TNFα production; details: stimulated monocytes; by promoting TNFα mRNA degradation; cited from earlier work
Source text: (§1) A range of biologics targeting TNFα have been licensed for the treatment of various inflammatory diseases, such as rheumatoid arthritis and Crohn’s disease. Although these agents have high potency and specificity, they are limited by their high production costs and potential immunogenicity. […] Also, their large molecular weight and low oral stability means their administration is only feasible through injection [[12 ...

[2] = test system: TNFα; details: cited from earlier work
Procedure: Small molecule with anti-TNFα activity with compact 3D conformations containing trifluoromethylphenyl indole and chromone moieties have previously been designed. These compounds bind with high affinity (IC50 = 13 μM) to a hydrophobic binding pocket formed by six tyrosine residues (Y59, Y119 and Y151 from chain A and B) at the interface of TNFα dimer. Alternative binding pockets that bind small molecules have also been identified from the predicted TNFα-TNFR1 complex and these involve the residues H66, L67 and L71 of TNFR1 and residues R82, F90 and F127 in TNFα [18]. Recently, a small ...

[3] = biological target: T1, recombinant human TNFα (Homo sapiens, UniProt P01375); experiment: HEK-Blue TNFα sensor cell assay (NF-ĸB-induced SEAP reporter); format: cell-based
T1 construct: purchased InvivoGen
Procedure: In the assay, the cells are transfected with a secretory alkaline phosphatase reporter gene which is downstream of the NF-ĸB promoter and expressed in response to TNFα receptor activation. The alkaline phosphatase activity was then quantified by measuring the absorbance (λ = 620 nm) of coloured substrate. […] Activation of HEK-Blue TNFα cells by 1 ng/mL of human TNFα (InvivoGen) in the presence and absence of anti-hTNFα antibody (InvivoGen) were used as positive and negative controls in the anti-TNFα assay (Figure 3).
Peptides were dissolved in DMSO and solutions were diluted with the cell culture media so the final concentration of DMSO is 1%. Blank experiments with 1% DMSO were carried out.
TNFα sensor cells (HEK-Blue) were grown in Dulbecco’s Modified Eagle’s medium (DMEM) containing 4.5 g/L glucose and supplemented with 10% [v/v] heat-inactivated foetal bovine serum, 2 mM L-glutamine, 100 μg/mL normocin, 50 U/mL penicillin and 50 μg/mL streptomycin. Selective antibiotics added to the culture medium include 100 μg/mL zeocin and 1 μg/mL puromycin and avoided in initial cultures (first 2 passages). Maintenance cultures were kept in T-75 cell culture flasks and incubated in humidified incubator with 5% [v/v] […]
can then be quantified in cells supernatant (20 μL) by the reaction with 180 µL of QUANTI‐
Blue™, a reagent that turns from purple to blue in the presence of SEAP. Quantification of […]

[4] = test system: HEK-Blue TNFα cells; details: 24 h, OD 540 nm, at the concentration used to test anti-TNFα activity, one duplicate
Procedure: Therefore, this can be used as preliminary data for further biological evaluations.
This assay was performed with one duplicate, and the error bars show standard error.
The Vybrant®® MTT assay (Thermo Fisher Scientific) was performed following the manufacturer protocol. In this assay, cell permeable tetrazolium dye (yellow) was […] in viable cells to yield the water-insoluble formazan (purple) after incubation with HEK-TNFα cells. Formazan was then solubilised and quantified by measuring the UV absorbance at 540 nm.

[5] = qualitative; reason for NMR in methanol-d3
[6] = test system: TNFα; parameters: method as in PMID 7756262; details: K562 cells, 125I-labelled TNFα; cited from earlier work
[7] = test system: menin-MLL protein–protein interaction; details: cited from earlier work
Source text: (§2) This was achieved by producing a cyclic peptide with higher target specificity compared to small molecules and low potential of immunogenicity when compared with biologics. Protein loops are often involved in the biomolecular recognition of proteins. Loop peptidomimetics have previously been introduced as a new class of bioactive agents. The ...

[8] = test system: protein kinase 2 regulatory subunit (CK2β) / catalytic subunit interaction; details: cited from earlier work
Source text: as §2

[9] = cited from earlier work
Source text: as §1

[10] = biological target: recombinant human tumour necrosis factor alpha (TNFα) (human) (UniProt P01375)
Chain of recombinant human tumour necrosis factor alpha (TNFα) (human) (P01375 77-233): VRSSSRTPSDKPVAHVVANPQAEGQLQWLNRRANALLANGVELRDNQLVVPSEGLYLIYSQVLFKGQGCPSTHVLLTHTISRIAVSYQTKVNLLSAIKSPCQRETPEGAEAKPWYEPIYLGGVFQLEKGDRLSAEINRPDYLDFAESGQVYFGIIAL

T1 sequence (P01375 77-233 limits assumed): as the sequence (P01375 77-233) above

O=C1CCC(N2C(=O)c3ccccc3C2=O)C(=O)N1 (stereo not shown) [Thalidomide]
effect on TNFα production [1]: inhibits TNFα production

Cc1ccc(C)c(Cn2c(CO)nc3ccccc32)c1 [UCB-6876]
effect on TNFα trimer in co-crystal structure [2]: change in the spatial arrangement of the TNFα trimer and a loss of its 3-fold symmetry

CC(C)C[C@@H]1NC(=O)[C@H](Cc2ccc(O)cc2)NC(=O)[C@H](CCC(N)=O)NC(=O)[C@H](CO)NC(=O)[C@H](Cc2c[nH]c3ccccc23)NC(=O)[C@@H](NC(=O)[C@@H](N)Cc2ccc(O)cc2)CSSC[C@@H](C(=O)N[C@@H](Cc2ccc(O)cc2)C(=O)O)NC1=O [WP9QY]
IC50 [3]: 122 µM
cytotoxicity (MTT) [4]: no significant cytotoxicity

CC(C)C[C@@H]1NC(=O)[C@H](CC(N)=O)NC(=O)[C@H](CCC(=O)O)NC(=O)[C@H](CO)NC(=O)[C@H](Cc2c[nH]c3ccccc23)NC(=O)[C@H](Cc2ccc(O)cc2)NC(=O)[C@H](Cc2c[nH]cn2)NC(=O)CNC(=O)[C@@H]2CCCN2C(=O)[C@H](CCC(N)=O)NC(=O)[C@H](Cc2ccccc2)NC1=O [compound 1] (cyclo(HYWSENLFQPG))
concentration achieving inhibition of TNFα activity by 35% ([3]; 35% inhibition, 1 ng/mL recombinant human TNFα, 24 h, 1% DMSO, absorbance 620 nm, duplicates): 117.4 µM
cytotoxicity (MTT) [4]: no significant cytotoxicity
solubility in water [5]: low solubility

Cc1ccc(C(=O)Nc2ccc(S(=O)(=O)O)c3cc(S(=O)(=O)O)cc(S(=O)(=O)O)c23)cc1NC(=O)c1cccc(NC(=O)Nc2cccc(C(=O)Nc3cc(C(=O)Nc4ccc(S(=O)(=O)O)c5cc(S(=O)(=O)O)cc(S(=O)(=O)O)c45)ccc3C)c2)c1 [suramin]
effect on TNFα oligomer [6]: Deoligomerisation of TNFα

MCP-1
inhibition of menin-MLL interaction [7]: inhibitor of the menin-MLL protein–protein interaction

cyclo-GCRLYGFKIHGCG [cyclic peptide derived from the regulatory subunit (CK2β) of protein kinase 2]
inhibition of CK2β interaction with catalytic subunit [8]: inhibits the interaction with the associated catalytic subunit

infliximab: large molecule biologic targeting TNFα
adverse reaction [9]: associated with development of infusion reaction

B1: cyclic peptide 1 (WP9 loop peptidomimetic 1) (peptide)
peptide: HYWSENLFQPG
modifications: cyclised head to tail (N- to C-) via a proline-glycine linker
concentration that inhibits TNFα activity by 35% in HEK-Blue TNFα sensor cells (NF-kB-driven secreted alkaline phosphatase), 1 ng/mL human TNFα, 24 h; the pair said to be blocked is TNFα with TNFR-1 [10]: 117 µM

B2: WP9QY (peptide)
peptide: YCWSQYLCY
modifications: disulfide 2-8 (inferred)
concentration that inhibits TNFα activity by 35% in HEK-Blue TNFα sensor cells (NF-kB-driven secreted alkaline phosphatase), 1 ng/mL human TNFα, 24 h; the pair said to be blocked is TNFα with TNFR-1 [10]: 97.2 µM
